In patent publication US20250345343A1, “PHARMACEUTICAL COMPOSITION FOR PREVENTION OR TREATMENT OF SOLID CANCER COMPRISING EPIDITHIODIOXOPIPERAZINE DERIVATIVE OR PHARMACEUTICALLY ACCEPTABLE SALT THEREOF” (priority 2019, published 2025):

How the values were obtained:
[1] = tested on: various cancer cell lines and three normal cells (MCF-10A, IMR90, and CCD-841); assay: Cell viability assay (Cell Titer-Glo), cancer cells versus normal cells; assay type: cell-based; conditions: 50 nM and 200 nM
Description: FIG. 5 is diagrams illustrating the cytotoxic effect of a synthetic epidithiodioxopiperazine derivative on various cancer cells and normal cells. (A) to (J) respectively illustrate the cell viability quantified by the Cell Titer-Glo assay system of breast cancer cells, lung cancer cells, stomach cancer cells, skin cancer cells, colon cancer cells, prostate cancer cells, pancreatic cancer cells, normal breast cells, normal fibroblasts, and normal epithelial cells after treating with the labelled ETP compound for 24 hours (n=3). And IC50 values are determined using a linear regression program (GraphPad Prism) and illustrated in (K).
In order to determine the IC50 value for examining cytotoxicity, the cells (2×10^5 cells/well) were aliquoted into 96-well plates and treated with the labelled compounds at various concentrations for 24 hours. The cell viability was measured using the Cell Titer-Glo Luminescence Assay Reagent Kit (Promega, G7570), and the luminescence was read using an Envision plate reader. The percentage of cell growth with respect to that in the vehicle control group (0.1% DMSO-treated cells) was calculated.

[2] = tested on: MDA-MB-231, Hs-578T, A549, H460, MKN28, MKN74, SK-MEL-5, SK-MEL-28, RKO, HCT116, PC3 and Panc-1 cancer cells; assay: Colony formation assay; assay type: cell-based; conditions: for colony formation inhibition: low concentrations (50 nM and 200 nM), 10 days
Method: The cells (2×10^3 cells/well) were cultured in 6-well plates for 24 hours, and then treated with the compounds of the present invention for 2 hours. The cells were placed in fresh complete media and additionally cultured for 10 days. The cells were washed with PBS and stained with crystal violet. Blue-stained colonies were manually counted.
Among the cancer cells prepared according to Experimental Example 1, breast cancer cell lines MDA-MB-231 and Hs-578T; lung cancer cell lines A549 and H460; stomach cancer cell lines MKN28 and MKN74; skin cancer cell lines SK-MEL-5 and SK-MEL-28; colon cancer cell lines RKO and HCT116; a prostate cancer cell line PC3; and a pancreatic cancer cell line Panc-1 were treated with DMSO as a control vehicle and synthetic epidithiodioxopiperazine derivatives A2, A5, and A10.

[3] = tested on: patient-derived lung adenocarcinoma tumor; assay: Patient-derived tumor xenograft experiment; assay type: in vivo, mice
Method: Animal experiments were approved by the Institutional Animal Care and Use Committee (IACUC) of Seoul National University College of Medicine and complied with ARRIVE (Animal Research: Reporting of In Vivo Experiments) guidelines. Patient-derived lung tumors were subcutaneously implanted into the backs of 4-week-old and 17-week-old NSG (NOD-scid-IL2Rgnull) and humanized NSG (HuNSG) mice, respectively. The compound represented by Chemical Formula 7 (A5, 300 mg/kg) and/or pembrolizumab (humanized anti-PD-1 antibody, 5 mg/kg) dissolved in PBS were intraperitoneally injected to the mice every 3 days for 3 weeks and every 5 days for 3 weeks, respectively. The tumors were allowed to grow for 28 days, excised, and quantified. The tumor volume was measured every 3 days using Vernier calipers and calculated using the following equation.
In the equation, a and b mean the superficial diameter of major axis and the superficial diameter of minor axis, respectively.
While the mouse models prepared by implanting a patient-derived lung adenocarcinoma tumor according to Experimental Example 10 were not treated, were treated only with a representative synthetic epidithiodioxopiperazine derivative A5, or were concurrently treated with A5 and pembrolizumab, a humanized antibody known to be used for cancer immunotherapy, the changes in volume of the tumor were periodically observed, and the results are illustrated in FIG. 15.

[4] = Cell proliferation assay (WST-1): cytotoxicity and proliferation of breast cancer cells; assay type: cell-based; conditions: human; up to a concentration of about 200 nM; breast cancer cells MDA-MB-231 and Hs-578T
Method: (§1) The cells (2×10^3 cells/well) were cultured in 96-well plates for 24 hours, and then treated with the compound of the present invention for 2 hours. The cells were placed in fresh complete media and cultured for the labelled time. For cell proliferation, the cells were treated with WST-1 reagent for 1 hour, and the absorbance of the formazan product at 450 nm was measured using a UV/VIS ELISA reader.
(§2) Among the cancer cells prepared according to Experimental Example 1, breast cancer cell lines MDA-MB-231 and Hs-578T were treated with DMSO as a control vehicle and a natural epidithiodioxopiperazine derivative gliotoxin, the cytotoxicity and proliferation rate at each concentration of the treated compound were calculated according to Experimental Example 2, and the results are illustrated in FIG. 1.

[5] = tested on: breast cancer cell lines MDA-MB-231 and Hs-578T; assay: as above; assay type: cell-based; conditions: breast cancer cells
Method: as §1, §2

[6] = tested on: breast cancer cell lines MDA-MB-231 and Hs-578T; assay: Cell cycle assay (PI staining, flow cytometry); assay type: cell-based; conditions: treated 2 hours, cultured 24 hours
Method: The cells (2×10^5 cells/well) were cultured in 6-well plates for 24 hours, and then treated with the compounds of the present invention for 2 hours. The cells were placed in fresh complete media and further cultured for 24 hours. The cells were fixed overnight in 70% ethanol at 4° C., washed with cold PBS, and re-suspended in PBS solution containing RNase A (10 μg/mL) at 37° C. for 30 minutes. The suspended cells were stained with propidium iodide (PI, 50 μg/mL, Invitrogen) for 5 minutes, and flow cytometry (FACS Calibur, BD) was performed. The cell population was analyzed using ModiFit LT software.
Among the cancer cells prepared according to Experimental Example 1, breast cancer cell lines MDA-MB-231 and Hs-578T were not treated or were treated with a natural epidithiodioxopiperazine derivative gliotoxin, the cell cycle was analyzed and the cell percentage in G1 phase was calculated according to Experimental Example 4, and the results are illustrated in FIG. 2.

[7] = tested on: breast cancer cell lines MDA-MB-231 and Hs-578T; assay: Migration assay (trans-well); assay type: cell-based; conditions: 24 hours
Method: The cells (2×10^5 cells/well) were cultured in 6-well plates for 24 hours, and then treated with the compounds of the present invention for 2 hours. After treatment, the cells were serum-starved by further culturing in fresh culture medium containing 0.5% FBS for 12 hours. The serum-starved cells (5×10^4 cells/well) were transferred to the upper chamber (8 μm pore size) of a 24-well trans-well culture plate (Costar) with the bottom layer pre-coated with 0.1% gelatin B (Sigma Aldrich). The lower chamber was filled with culture medium containing 20% FBS. Twenty-four hours after plating, non-migrated cells in the upper chamber were removed. After the cells which had not migrated from the upper chamber were removed, the upper chamber was fixed with methanol and stained with 0.6% hematoxylin (DAKO). The stained cells were photographed and counted. The number of migratory cells was determined by averaging the values from three wells.
Among the cancer cells prepared according to Experimental Example 1, breast cancer cell lines MDA-MB-231 and Hs-578T were treated with DMSO as a control vehicle and natural epidithiodioxopiperazine derivative gliotoxin, cell migration to the FBS-containing medium was observed and the number of migrated cells was counted according to Experimental Example 5, and the results are illustrated in FIGS. 3 and 4.

C=CCN1C(=O)C2SSC1C(=O)N2CC=C [A5, 5,7-diallyl-2,3-dithia-5,7-diazabicyclo[2.2.2] octane-6,8-dione]
non-specific cytotoxicity [1]: do not exhibit non-specific cytotoxicity | colony formation inhibitory effect ([2]; 50 nM): equal to or somewhat superior to that in the control vehicle-treated group | colony formation inhibitory effect ([2]; 200 nM): remarkably so as to be observed with the naked eye in all tested cells | colony formation inhibition [2]: efficiently inhibit colony formation | tumor volume over time ([3]; NSG mice, A5 300 mg/kg intraperitoneally every 3 days for 3 weeks): increase in tumor volume is suppressed | tumor size compared to untreated control group ([3]; humanized NSG mice (HuNSG), A5 300 mg/kg intraperitoneally every 3 days for 3 weeks): an effect of decreasing the tumor size is exerted | inhibiting tumor growth and decreasing tumor size, A5 alone versus pembrolizumab or A5 plus pembrolizumab ([3]; humanized NSG mice (HuNSG), pembrolizumab 5 mg/kg every 5 days for 3 weeks): superior to the pembrolizumab-treated group or the experimental group concurrently treated with A5 and pembrolizumab

CN1C(=O)C23CC4=CC=CC(O)C4N2C(=O)C1(CO)SS3 (stereo not drawn) [gliotoxin]
viability [4]: ≥ 80% | proliferation rate compared to DMSO-treated cells ([5]; gliotoxin 100 nM): significantly decreased | increase of cell percentage in G1 phase compared to untreated group [6]: ≥ 10% | migration of breast cancer cells induced to the serum-containing medium [7]: significantly decreased

CN1C(=O)C2SSC1C(=O)N2C [A2, 5,7-dimethyl-2,3-dithia-5,7-diazabicyclo[2.2.2] octane-6,8-dione]
non-specific cytotoxicity [1]: do not exhibit non-specific cytotoxicity | colony formation inhibitory effect ([2]; 50 nM): equal to or somewhat superior to that in the control vehicle-treated group | colony formation inhibitory effect ([2]; 200 nM): remarkably so as to be observed with the naked eye in all tested cells | colony formation inhibition [2]: efficiently inhibit colony formation

CN1C(=O)C2(Cc3cn(C45CC67SSC(CO)(C(=O)N6C4Nc4ccccc45)N(C)C7=O)c4ccccc34)SSC1(CO)C(=O)N2C (stereo not drawn) [chetomin]
viability at 2 h [4]: ≥ 80% | proliferation rate compared to DMSO-treated cells ([5]; chetomin 50 nM): significantly decreased | migration of breast cancer cells induced to the serum-containing medium [7]: significantly decreased

O=C1N2CCCC23SSC12CCCN2C3=O [A10, 5a, 10a-dithio-octahydrodipyrrolo[1,2-a:1′,2′-d]pyrazine-5,10-dione]
non-specific cytotoxicity [1]: do not exhibit non-specific cytotoxicity | colony formation inhibitory effect ([2]; 50 nM): colony formation was inhibited in most cancer cells | colony formation inhibition [2]: efficiently inhibit colony formation
